# Like-named read-outs stand apart in the source and are kept apart here.
# Columns and labels:
# [1] = tested on: Staphylococcus aureus ATCC 29213; assay: MIC by broth microdilution (CLSI); type: cell-based; conditions: ATCC 29213
# Source text: (§1) Several well characterized for their antibiotic-susceptibility phenotype Staphylococcus aureus isolates were used for the determination of the in vitro antibacterial activity of the studied compounds. In particular, S. aureus ATCC 29213 reference standard strain and S. aureus M923 (collection strain) were used as MSSA strains. Among MRSA, S. aureus MU50 (ATCC 700699) reference standard strain and two collection strains (433 and F511) were used for susceptibility assays.
# (§2) The in vitro antibacterial activity of the new agents was studied by determining their minimum inhibitory concentrations (MICs) by means of the broth microdilution method according to the Clinical and Laboratory Standards Institute (CLSI) guidelines.[16] Briefly, serial 2-fold dilutions of each compound were made using the Cation adjusted Mueller-Hinton broth (CAMHB) in microtitre plates with 96 wells. Dimethyl sulfoxide (DMSO) was used as solvent for all the synthesized compounds. An equal volume of the bacterial inoculum (1×10^6 CFU/mL) was added to each well on the microtitre plate containing 0.05 mL of the serial antibiotic dilutions. The microtitre plate was then incubated at 37° C. for 18-24 h after which each well was analysed for the presence of bacterial growth. The MIC was defined as the lowest concentration of antimicrobial agent able to cause inhibition of bacterial growth as shown by the lack of turbidity of the culture medium. […] Final DMSO concentrations were also taken into account in all the biological assays.
# (§3) The antimicrobial activities, summarized in Table 2, were determined by the “gold standard” method of broth microdilution, as recommended by the Clinical Laboratory Standards Institute (CLSI) (See the Experimental Section). […] In detail, the bacterial strains were tested: Staphylococcus aureus ATCC 29213, a clinical strain of methicillin-susceptible S. aureus (M923), S. aureus MU50 (methicillin-resistant—MRSA), and two methicillin-resistant clinical strains, 433 and F511.
# (§4) The antimicrobial activities, summarized in Table 3, were determined by the “gold standard” method of broth microdilution, as recommended by the Clinical Laboratory Standards Institute (CLSI) (See the Experimental Section). The minimum inhibitory concentration (MIC) values were expressed in μg/mL. […] In detail, the tested bacterial strains were: Staphylococcus aureus ATCC 29213, a clinical strain of methicillin-susceptible S. aureus (M923), S. aureus MU50 (methicillin-resistant—MRSA) strain, and two methicillin-resistant clinical strains, 433 and F511.
# [2] = tested on: S. aureus MU50 (ATCC 700699), methicillin-resistant (MRSA); assay: MIC by broth microdilution (CLSI); type: cell-based, Staphylococcus aureus
# Source text: as §1, §2, §3, §4
# [3] = tested on: MRSA clinical strain 433; assay: MIC by broth microdilution (CLSI); type: cell-based, Staphylococcus aureus; conditions: MRSA 433
# Source text: as §1, §2, §3, §4
# [4] = tested on: MRSA clinical strain F511; assay: MIC by broth microdilution (CLSI); type: cell-based, Staphylococcus aureus
# Source text: as §1, §2, §3, §4
# [5] = tested on: methicillin-susceptible S. aureus (M923); assay: MIC by broth microdilution (CLSI); type: cell-based, Staphylococcus aureus; conditions: MSSA M923
# Source text: as §1, §2, §3, §4
# [6] = tested on: 12 MRSE all LZD sensitive; assay: MIC on strain panel (Table 4); type: cell-based, Staphylococcus epidermidis
# Source text: as §2
# [7] = tested on: 6 ATCC (4MSSA, 2 MRSA)plus45 MRSA all LZD sensitive; assay: MIC on strain panel (Table 4); type: cell-based, Staphylococcus aureus; conditions: 6 ATCC plus 45 MRSA
# Source text: as §2
# [8] = Staphylococcus aureus, ATCC29213, racemic mixture, Table 2, read-out: MIC
# [9] = Staphylococcus aureus, racemic mixture, Table 2, read-out: MIC
# [10] = Staphylococcus aureus, racemic form, Table 3, read-out: MIC
"MIC [1, 8] [µg/mL]","MIC [2, 9] [µg/mL]","MIC [3, 9] [µg/mL]","MIC [4, 9] [µg/mL]","MIC [5, 9] [µg/mL]",SMILES,further results
> 50,> 50,> 50,> 50,> 50,Cc1noc(-c2ccc(N3CC(Cn4cccn4)OC3=O)cc2)n1 (racemic) [Compound A5a],
,,,,,Cc1noc(-c2ccc(N3CC(CNC(N)=S)OC3=O)cc2F)n1 (racemic) [Compound B3b],"MIC ([1]; racemic form, Table 3): >50 µg/mL; MIC ([2]; racemic form, Table 3): >50 µg/mL; MIC ([3]; racemic form, Table 3): >50 µg/mL; MIC ([4]; racemic form, Table 3): >50 µg/mL; MIC ([5]; racemic form, Table 3): >50 µg/mL"
> 50,> 50,> 50,> 50,> 50,Cc1noc(-c2ccc(N3CC(Cn4cccn4)OC3=O)cc2F)n1 (racemic) [Compound A5b],
> 50,50,50,> 50,> 50,"Cc1noc(-c2ccc(N3CC(CI)OC3=O)cc2F)n1 (racemic) [Compound A1b, 3-(3′-fluoro-4′-(3″-methyl-1,2,4-oxadiazol-5″-yl)-phenyl)-5-(iodomethyl)-oxazolidin-2-one]",melting point: 148 to 149 °C
,,,,,CNC(=S)NC[C@H]1CN(c2ccc(-c3nc(C)no3)cc2)C(=O)O1 [Compound B4aS],MIC50 [6]: 16 µg/mL; MIC90 [6]: 32 µg/mL; MIC range [6]: 8 to 32 µg/mL; MIC50 [7]: 2 µg/mL; MIC90 [7]: 4 µg/mL; MIC-range ([7]; tested range ≤0.06 - >128): 0.5 to 8 µg/mL
,,,,,CNC(=S)NC[C@@H]1CN(c2ccc(-c3nc(C)no3)c(F)c2)C(=O)O1 [Compound B4bR],MIC50 [6]: >128 µg/mL; MIC90 [6]: >128 µg/mL; MIC50 [7]: >128 µg/mL; MIC90 [7]: >128 µg/mL
> 50,> 50,> 50,> 50,> 50,Cc1noc(-c2ccc(N3CC(Cn4cncn4)OC3=O)cc2F)n1 (racemic) [Compound A7b],
> 50,> 50,> 50,> 50,> 50,Cc1noc(-c2ccc(N3CC(Cn4ccnc4)OC3=O)cc2)n1 (racemic) [Compound A6a],
,,,,,Cc1noc(-c2ccc(N3CC(Cn4ccnn4)OC3=O)cc2)n1 (racemic) [Compound B1a],"MIC ([1]; Staphylococcus aureus, ATCC29213, racemic form, Table 3, read-out: MIC): 25 µg/mL; MIC [2, 10]: 3.12 µg/mL; MIC [3, 10]: 12.5 µg/mL; MIC [4, 10]: 12.5 µg/mL; MIC [5, 10]: 25 µg/mL; melting point: 208 to 210 °C"
> 50,> 50,> 50,> 50,> 50,Cc1noc(-c2ccc(N3CC(Cn4ccnc4)OC3=O)cc2F)n1 (racemic) [Compound A6b],
> 50,> 50,> 50,> 50,> 50,Cc1noc(-c2ccc(N3CC(Cn4cncn4)OC3=O)cc2)n1 (racemic) [Compound A7a],
,,,,,CNC(=S)NC[C@@H]1CN(c2ccc(-c3nc(C)no3)cc2)C(=O)O1 [Compound B4aR],MIC50 [6]: >128 µg/mL; MIC90 [6]: >128 µg/mL; MIC range [6]: >128 µg/mL; MIC50 [7]: >128 µg/mL; MIC90 [7]: >128 µg/mL

# From patent publication US9920039B2, “1,2,4-Oxadiazol compounds active against gram-positive pathogens” (UNIVERSITÀ DEGLI STUDI DI MILANO—BICOCCA, priority 2013, dated 2018)
